Series [1] deals with patients with advanced solid tumors. As to the kind of experiment: Phase I dose escalation: MTD and DLT of flavopiridol with FOLFIRI. The class given is in vivo, human.
The test system of series [2] is melanoma. The conditions noted are these: single agent; 16 patients; cited from earlier work.
Series [3] is described as follows: Flavopiridol plasma pharmacokinetics. The series is classed as in vivo. The conditions noted are these: human, intravenous.
Series [4] concerns patients with refractory colorectal cancer. The conditions noted are these: combined with irinotecan at 125 mg/m^2 given weekly for 4 of every 6 weeks; cited from earlier work.
[5] abbreviates: in combination with flavopiridol.
Where [6] appears, read: split-dose schedule (MTD2): 30-min bolus followed by 4-h infusion.

Structures are written as SMILES.

In the case of `O=c1[nH]cc(F)c(=O)[nH]1` [5FU, fluorouracil], in series [1] (setting [5]), the “established MTD (FOLFIRI component), bolus” value is given as 400 mg/m^2 and the “established MTD (FOLFIRI component), over 48 h” value is given as 2,400 mg/m^2.
For `Nc1nc2c(c(=O)[nH]1)N(C=O)C(CNc1ccc(C(=O)N[C@@H](CCC(=O)O)C(=O)O)cc1)CN2` (some centres unmarked) [LV, leucovorin], in series [1] (setting [5]), the “established MTD (FOLFIRI component)” value stood at 400 mg/m^2.
In the case of `CN1CC[C@H](c2c(O)cc(O)c3c(=O)cc(-c4ccccc4Cl)oc23)[C@H](O)C1` [flavopiridol, Flavopiridol], in series [1] (flavopiridol over 1 h (bolus schedule, cohort 9, MTD1), every 2 weeks), the “MTD with FOLFIRI” value is on record as 80 mg/m^2. The “MTD with FOLFIRI, bolus part” value in series [1] (setting [6]) was 35 mg/m^2. In series [1] (setting [6]), the “MTD with FOLFIRI, part over 4 h” value amounted to 35 mg/m^2. Besides, the objective responses result in series [2] is on record as “no objective responses”. In addition, the Cmax in series [3] (Cmax, at MTDs, patients who experienced DLT) turned out to be 3.48 µM; in series [3] (Mean Cmax, cycle 1, cohort 9: flavopiridol 80 mg/m^2, irinotecan 180 mg/m^2, n 6), 2.69 µM. The MTD of flavopiridol in series [4] is 50 mg/m^2.
On to `CCc1c2c(nc3ccc(OC(=O)N4CCC(N5CCCCC5)CC4)cc13)-c1cc3c(c(=O)n1C2)COC(=O)[C@]3(O)CC` [irinotecan], for which, in series [1] (setting [5]), the “established MTD (FOLFIRI component)” value is recorded as 180 mg/m^2.

What is called Cmax is the highest concentration seen after dosing.

The values above are taken from publication PMC2957673 (Cancer chemotherapy and pharmacology, 2010).
